{"source": "paper PMC11397358", "about": "“Cytotoxic Activity of Novel GnRH Analogs Conjugated with Mitoxantrone in Ovarian Cancer Cells” (Molecules, 2024)", "key": {"[1]": {"system": "SKOV-3 cells", "test": "Cell proliferation (MTT) assay", "assay_type": "cell-based, human", "conditions": "for IC50: Homo sapiens, 0.1 nM–10 µM, medium with 2% BCS, mean ± spread, Con-3 and mitoxantrone n = 3 experiments, Con-7 n = five", "method": "The antiproliferative effects of GnRH-mitoxantrone conjugates, Con-3, and Con-7, were evaluated using the SKOV-3 cells. The Con-3 and Con-7 conjugates decreased the proliferation rate of SKOV-3 cells in a dose-dependent manner on days 2, 3, and 4 (Figure 3A–C).\nFigure 3 Antiproliferative activity of the GnRH analogs. Decrease in the proliferation rate of the SKOV3 cells after their treatment with increasing concentrations of Con-3, Con-7, Con-P1 or Con-P2 for 2 days (A), 3 days (B) and 4 days (C) at 37 °C. At the end of the incubation, the cells were further incubated with 0.5 mg/mL MTT for 4 h at room temperature and the formed purple formazan crystals were quantified by measuring absorbance at 594 nm. The means ± S.E (triplicate determination) are shown from a representative experiment performed 3 times with similar results. The proliferation rates of cells treated with 1 μΜ of GnRH analogs were used to plot the graph D which depicts the decrease in cell growth over the incubation time (D). Statistical analysis was performed using one-way ANOVA.\nAt the end of the incubation, the cells were further incubated with 0.5 mg/mL MTT for 4 h at room temperature and the formed purple formazan crystals were quantified by measuring absorbance at 594 nm. The means ± S.E (triplicate determination) are shown from a representative experiment performed 3 times with similar results. […] Statistical analysis was performed using one-way ANOVA.\nSKOV-3 cells (kindly provided by Prof. Dimitrios Mavroudis, University of Crete) were seeded into 96-well plates at a density of 6000 cells/well, in triplicates, and incubated overnight in Dulbecco’s modified Eagle’s medium/F12 (DMEM/F12) (1:1), containing 3.15 g/L glucose and 10% bovine calf serum (BCS, HyClone), at 37 °C and 5% CO2. At the end of the incubation, the culture medium was replaced with a fresh one containing 3.15 g/L glucose and 2% BCS, with or without increasing concentrations of GnRH analogs or mitoxantrone (0.1 nM–10 µM), and the cells were further incubated at 37 °C and 5% CO2 for 2, 3 and 4 days. Subsequently, (3-(4,5-dimethylthiazol-2-yl)-2,5- diphenyl tetrazolium bromide) (MTT) was added at a final concentration of 0.5 mg/mL, and the mixtures were incubated for 4 h at room temperature in the dark, allowing the viable cells to reduce the MTT to formazan crystals. The supernatants were removed, and the purple formazan crystals were dissolved in isopropanol containing 4% HCl (100 μL/well) by mixing thoroughly for 30 min in the dark, before the quantification of the absorbance at 594 nm using a Dynatech MicroElisa reader (Chantilly, VA, USA). The percentage of the proliferation rate (% proliferation rate) treated with a GnRH analog was determined based on the following equation: % proliferation rate = (absorbance of cells treated with a GnRH analog/absorbance of untreated cells) × 100. The % viability of the untreated cells (control) was defined as 100%. The % viabilities were analyzed by nonlinear regression analysis, using Prism 8.0 (GraphPad Software, Prism 8.0, San Diego, CA, USA)."}, "[2]": {"system": "SKOV-3 cells", "test": "TMRE-based detection of mitochondrial membrane potential (ΔΨm)", "assay_type": "cell-based, human", "conditions": "1 μM, 72 h, fresh compound every 24 h; three independent experiments; p < 0.01 vs untreated", "description": "The apoptosis of SKOV3 cells by Con-3, Con-7 and mitoxantrone was further validated in a mitochondrial membrane potential (ΔΨm) assay, which utilizes the cell-permeable, cationic dye, tetramethylrhodamine ethyl ester (TMRE) to detect the ΔΨm. TMRE accumulates in healthy mitochondria with polarized membrane, but not in the mitochondria of apoptotic cells. Mitochondrial permeabilization and the loss of the mitochondrial transmembrane potential are associated with cell apoptosis and a drop in fluorescence of TMRE [40].\nFigure 8 TMRE-based detection of mitochondrial membrane potential (ΔΨm) of SKOV-3 cells. The change in ΔΨm was detected using TMRE after treatment of SKOV3 cells with 1μM Con-3, Con-7 or mitoxantrone for 72 h. The TMRE fluorescence intensities are represented as histogram bars for results obtained in three independent experiments. […] The data are expressed as the mean ± SEM.\nThe reduced mitochondrial membrane potential (ΔΨm) that accompanies apoptosis was detected using the fluorescent dye, tetramethylrhodamine ethyl ester (TMRE) (Ex/Em: 530/580 nm), (Cayman, TMRE Mitochondrial Membrane Potential Assay Kit, Item No. 701310). SKOV-3 cells were grown on 60 mm tissue culture dishes to achieve ca. 60% confluence. Monolayers of these cells were treated for a total of 72 h using RPMI 1640 containing 1 μM each of Con-3, Con-7 or mitoxantrone. At the end of each consecutive 24 h treatment period, the test solutions were removed and replaced with new media containing fresh test compounds. After 72 h TMRE was added to each dish to a final concentration of 5 μM. After a 30 min exposure to TMRE, the media was removed so that the cell monolayers could be dispersed using 0.25% trypsin-EDTA. The resultant cell suspensions were subjected to centrifugation and repeated resuspension in a standard extracellular salt solution (SES). […] The TMRE fluorescence intensities monitored from the individual wells were measured using a Flexstation 3 microplate reader (Molecular Devices, Sunnyvale, CA, USA)."}, "[3]": {"biological_target": "T1, human GnRH-R (Homo sapiens, UniProt P30968)", "T1 construct": "host or cells: HEK293 (ATCC CRL-1573)", "T1 sequence (P30968 1-328)": "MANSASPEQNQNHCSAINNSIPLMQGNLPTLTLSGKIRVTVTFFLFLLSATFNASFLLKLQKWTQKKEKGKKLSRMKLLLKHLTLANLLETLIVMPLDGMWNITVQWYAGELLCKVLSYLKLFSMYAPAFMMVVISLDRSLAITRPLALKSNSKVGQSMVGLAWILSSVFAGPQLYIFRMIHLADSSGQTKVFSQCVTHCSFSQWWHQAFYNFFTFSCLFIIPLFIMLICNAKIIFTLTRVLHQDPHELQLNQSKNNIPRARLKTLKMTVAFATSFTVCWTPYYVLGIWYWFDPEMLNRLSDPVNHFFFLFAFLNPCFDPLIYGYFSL", "test": "Calcium-based (fura-2) kinetic assay of GnRH-R agonism", "assay_type": "cell-based", "conditions": "HEK293 cells transfected with human GnRH-R; fura-2", "protocol": "For this purpose, fura-2-based kinetic assays to monitor the [Ca^2+] were performed in real-time using suspensions of HEK293 cells transiently transfected with the human GnRH-R (Figure 2A–I).\nHEK293 cells transfected with the human GnRH-R served as a platform with which to test for agonist actions of individual test compounds. These cells were loaded with the ratiometric Ca^2+ indicator fura-2 so that the change in intracellular [Ca^2+] in response to agonist stimulation could be monitored in real time in a 96-well format. For these assays, the individual test compounds were administered at the 100 s time point.\nTwo days post-transfection, the HEK293 cells were harvested via trypsinization to obtain single-cell suspensions that were plated at 80% density on rat tail collagen-coated 96-well Costar 3904 plates for loading with the ratiometric Ca^2+ indicator fura-2. Measurements of the intracellular [Ca^2+] were performed using a Flexstation 3 microplate reader (Molecular Devices, Sunnyvale, CA, USA). Briefly, test solutions containing GnRH-R agonists were administered to individual wells of a 96-well plate using the automated pipetting feature of the Flexstation under computer control. […] Emitted light was detected at 505/15 nm, and the ratio of emission light intensity due to excitation at 335/9 and 375/9 nm was calculated. […]"}}, "note": "Like-named read-outs stand apart in the source and are kept apart here.", "data": [{"smiles": "CCNC(=O)[C@@H]1CCCN1C(=O)[C@H](CCCNC(=N)N)NC(=O)[C@H](CC(C)C)NC(=O)[C@@H](CSSCCC(=O)OCCNCCNc1ccc(NCCNCCO)c2c1C(=O)c1c(O)ccc(O)c1C2=O)NC(=O)[C@H](Cc1ccc(O)cc1)NC(=O)[C@H](CO)NC(=O)[C@H](Cc1c[nH]c2ccccc12)NC(=O)[C@H](Cc1c[nH]cn1)NC(=O)[C@@H]1CCC(=O)N1", "note": "[Con-3]", "values": [{"measurement": "percentage of the proliferation rate", "setting": "[1]; 1 μΜ, two days of treatment, untreated cells = 100%", "value": 64.4, "unit": "%"}, {"measurement": "TMRE accumulation / fluorescence (mitochondrial membrane potential), in words", "setting": "[2]", "value": "significantly reduced the accumulation of the TMRE"}]}, {"smiles": "CCNC(=O)[C@@H]1CCCN1C(=O)[C@H](CCCNC(=N)N)NC(=O)[C@H](CC(C)C)NC(=O)[C@@H](CCCCNC(=O)CCCCCNC(=O)CCSSCC(=O)OCCNCCNc1ccc(NCCNCCO)c2c1C(=O)c1c(O)ccc(O)c1C2=O)NC(=O)[C@H](Cc1ccc(O)cc1)NC(=O)[C@H](CO)NC(=O)[C@H](Cc1c[nH]c2ccccc12)NC(=O)[C@H](Cc1c[nH]cn1)NC(=O)[C@@H]1CCC(=O)N1", "note": "[Con-7]", "values": [{"measurement": "TMRE accumulation / fluorescence (mitochondrial membrane potential), in words", "setting": "[2]", "value": "significantly reduced the accumulation of the TMRE"}]}, {"smiles": "O=C1c2c(O)ccc(O)c2C(=O)c2c(NCCNCCO)ccc(NCCNCCO)c21", "note": "[mitoxantrone]", "values": [{"measurement": "IC50", "setting": "[1]; SK-OV-3, 48 h, 2 days at 37 °C, read-out: IC50, proliferation of SKOV-3 cells, day 2", "value": "480 ± 210", "unit": "nM"}, {"measurement": "IC50", "setting": "[1]; SK-OV-3, 72 h, 3 days at 37 °C, read-out: IC50, proliferation of SKOV-3 cells, day 3", "value": "420 ± 90", "unit": "nM"}, {"measurement": "IC50", "setting": "[1]; SK-OV-3, 96 h, 4 days at 37 °C, read-out: IC50, proliferation of SKOV-3 cells, day 4", "value": "280 ± 60", "unit": "nM"}, {"measurement": "GnRH-R agonist action (Ca2+ elevation), in words", "setting": "[3]", "value": "without effect"}, {"measurement": "TMRE accumulation / fluorescence (mitochondrial membrane potential), in words", "setting": "[2]", "value": "significantly reduced the accumulation of the TMRE"}]}]}
